Experimental data as given in patent US11707070B2, “Inhibition of fungal growth by manganese depletion” (Chr. Hansen A/S, priority 2018, dated 2023).
Like-named read-outs stand apart in the source and are kept apart here.

Experiments:
Debaromyces hansenii = tested on: Debaromyces hansenii
Procedure: Absorbance at 600 nm was measured after 7 days of incubation at 17° C., compared to reference. Samples made in triplicate.
Two concentrations of manganese were used, 6 ppm and 0.6 ppm, in example 8.

Cryptococcus fragicola = test: Yeast agar-assay on fermented milk plates (Example 6); type: cell-based; details: added manganese on fermented milk agar plates
Procedure: Influence of manganese on the inhibitory effect against different molds were evaluated. An agar-assay resembling the manufacturing process and production of fermented milk products was used. L. rhamnosus and L. paracasei were used together as manganese scavenging agents. Reduced-fat (1.5% w/v) homogenized milk was heat-treated at 90±1° C. for 20 min and cooled immediately. A commercial starter culture (Streptococcus thermophilus and Lactobacillus delbrueckii subsp. bulgaricus) was inoculated at 0.02% (v/w) in 3 L buckets. […] The fermented milk products were divided into 200 mL bottles and cooled down. […] All the fermented milk samples were warmed to a temperature of 40° C. and added 40 ml of a 5% sterile agar solution that had been melted and cooled down to 60° C. This solution of fermented milk and agar was then poured into sterile Petri dishes and the plates were dried in a LAF bench for 30 min. Three target contaminants, including two Debaryomyces hansenii (strain 1 and strain 2) and one Cryptococcus fragicola were spotted in concentrations of 10^3, 10^2 and 10^1 CFU/spot. Plates were incubated at 7±1° C. and regularly examined for the growth of yeast.

Debaryomyces hansenii [1] = details: chemically defined medium, pH 6.5 or 4.5; 6 days at 17° C.; FIGS. 1 and 2
Procedure: Two D. hansenii isolated from spoiled yogurt (strain 1) and quark (strain 2), respectively, were used.
The minimal medium contains biotin 2 μg/L, calcium pantothenate 400 μg/L, folic acid 2 μg/L, inositol 2 mg/L, nicotinic acid 400 μg/L, p-amino benzoic acid 200 μg/L, pyridoxine 400 μg/L, riboflavin 200 μg/L, thiamine 400 μg/L, Boric acid 500 μg/L, copper sulfate 40 μg/L, potassium iodide 100 μg/L, ferric chloride 200 μg/L, sodium molybdate 200 μg/L, zinc sulfate 400 μg/L, potassium phosphate monobasic 0.5 g/L, potassium phosphate dibasic 0.5 g/L, magnesium sulfate 0.5 g/L, sodium chloride 0.1 g/L, calcium chloride 0.2 g/L, glucose 20 g/L, ammonium sulfate 5 g/L.
Two different pH were tested: pH 6.5 and 4.5.
The strains were inoculated to 150 μl of the different medium in a 96 well plate. The plates were incubated at 17° C. for several days and the growth of the yeast strains was followed by measuring absorbance at 600 nm in a plate reader.

Debaryomyces hansenii [2] = test: Yeast growth in yogurt with EDTA or scavenger (Example 9); type: cell-based; details: added to reference yogurt; FIG. 14
Procedure: The concentration of EDTA ranges from 14 mg/ml (top row), 7.10 mg/ml, 3.55 mg/ml, 1.78 mg/ml, 0.89 mg/ml, 0.44 mg/ml, 0.22 mg/ml to 0 mg/ml (bottom row).

Compound: [Mn+2] [manganese]
- manganese concentration with inhibitory/toxic effect on yeast growth (Debaromyces hansenii; Example 8): 6 ppm
- Manganese concentration that seemed to inhibit the growth (Cryptococcus fragicola): 6 ppm
- manganese concentration below which growth is inhibited (Debaryomyces hansenii [1]): < 0.01 ppm

Compound: O=C(O)CN(CCN(CC(=O)O)CC(=O)O)CC(=O)O [EDTA, ethylenediaminetetraacetic acid]
- concentration reproducing the inhibition of manganese scavenging agent 1 (Debaryomyces hansenii [2]): up to 0.89 mg/ml
- concentration at which cells stop growing (inhibitory effect) (Debaromyces hansenii; FIG. 12, aqueous phase filtered with 1.2 μm filter, 7 days at 17° C.): 0.05 mg/mL
- effect on growth of adding 0.6 ppm of manganese together with 0.05 mg/ml EDTA (Debaromyces hansenii; FIG. 13, 0.05 mg/ml EDTA + 0.6 ppm manganese): restores the growth
- concentration at which cells stop growing (inhibitory effect) (Debaromyces hansenii; FIG. 13, aqueous phase filtered with 0.2 μm filter, absence of manganese (0.6 ppm)): 0.05 mg/mL
